One assay addresses T1, 5-lipoxygenase (Homo sapiens, UniProt P09917).
T1 construct: endogenous in cells; host or cells: leukocytes isolated from fresh human blood
T1 sequence (P09917 1-674): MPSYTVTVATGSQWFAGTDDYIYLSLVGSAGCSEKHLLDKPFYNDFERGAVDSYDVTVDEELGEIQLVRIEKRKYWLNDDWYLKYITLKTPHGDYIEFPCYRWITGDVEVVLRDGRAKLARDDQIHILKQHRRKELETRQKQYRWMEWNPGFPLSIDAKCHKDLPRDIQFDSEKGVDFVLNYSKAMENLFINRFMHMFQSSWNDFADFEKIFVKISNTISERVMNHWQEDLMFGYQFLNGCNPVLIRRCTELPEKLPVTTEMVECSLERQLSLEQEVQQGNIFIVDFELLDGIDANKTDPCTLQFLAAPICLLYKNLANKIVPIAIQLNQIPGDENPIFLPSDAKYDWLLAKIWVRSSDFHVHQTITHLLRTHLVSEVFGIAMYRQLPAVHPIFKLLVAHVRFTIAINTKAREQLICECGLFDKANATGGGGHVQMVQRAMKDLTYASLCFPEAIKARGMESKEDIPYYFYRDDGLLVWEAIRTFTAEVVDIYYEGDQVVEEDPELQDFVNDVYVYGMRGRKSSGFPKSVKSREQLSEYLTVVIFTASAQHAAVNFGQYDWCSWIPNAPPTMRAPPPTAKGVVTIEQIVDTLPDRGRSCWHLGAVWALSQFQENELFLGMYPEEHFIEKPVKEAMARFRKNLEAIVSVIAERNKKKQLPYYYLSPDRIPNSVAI
Kind of assay: 5-Lipoxygenase Assay Using Isolated Human Leukocytes (5LOA2). The class given is cell-based. The settings on record: 20 μM exogenous arachidonic acid; read-out: IC50 5LOA (20)*. The method, then:
5-Lipoxygenase Assay Using Isolated Human Leukocytes (5LOA2)
The formation of 5-HETE in human leukocytes is considered a measure of 5-lipoxygenase activity. The protocol is described in the following.
Fresh heparinized or EDTA treated human blood is mixed with 6% dextran-3% dextrose in isotonic saline in the ratio 0.25 ml dextran solution per 1.0 ml blood. After mixing the blood is allowed to sit at room temperature for about 90 minutes while the RBC's settle. During this period, the plasma is removed with a plastic pipette to nalgens tubes.
The plasma is centrifuged at 800 rpm ([…]) on the Beckman Td-b refrigerated centrifuge to remove the platelets (which remain in the supernatant). The pellet, consisting of leukocytes and erythrocytes, is treated with 10 ml 0.87% ammonium chloride at room temperature for four minutes, lysing the red cells. At the end of four minutes the cells are diluted with a 2× volume of phosphate buffered saline, pH 7.4, and centrifuged for ten minutes. The cells are washed three times with the phosphate buffered saline. Any of the pelleted cell matter which is not easily resuspended is discarded during the washings--the material contains platelets (12-lipoxygenase activity).
After washing, the cells are resuspended in phosphate buffered saline containing 1.0 mM calcium and 0.5 mM magnesium. After counting the cells are diluted to 1.5-2.0×10^7 leukocytes per milliliter.
To each polypropylene reaction tube is added 0.48 ml leukocytes in Ca-Mg phosphate buffered saline, pH 7.4; 1-5 μl test compound dissolved in DMSO and buffer; or DMSO for control tubes.
The tubes preincubate at 37° C. for five minutes.
The reaction is started by adding 20 μl of the following, 0.5 μl 20 mM arachidonic acid--final concentration=20 μm; 1 μl 5 mM calcium ionophore A23187--final concentration=10 μm; and 18.5 μl buffer.
The reaction proceeds for five minutes, then is stopped by adding 0.5 ml 0.5 mM ice cold Tris buffer, pH 8.0. The tubes are chilled on ice for ten minutes and then extracted three times with a total of 3.5 ml ethyl acetate (3.0 ml removed).
The tubes can be stored at this point. For extended storage, the tubes should be filled with nitrogen.
The ethyl acetate is evaporated with a Sorvall Speed-Vac. The residue is dissolved in ethanol. The tubes can also be stored at this point at -20° C. under nitrogen.
A portion of the ethanol solution is injected into the HPLC system for 5-HETE quantitation.
The HPLC system consists of Hewlett-Packard 1040A UV spectrophotometry system with an HP85 computer. Injections are made automatically with a Waters WISP 710B. The pump is a Spectra Physics SP8700. Peaks are measured with a Hewlett Packard 3390A integrator. An RP C-18 column is used. The solvent system is isocratic; the solvent is 70% methanol and 30% 0.01M sodium acetate, pH 5.7, pumped at 1.0 ml/min. The flow is monitored at 235 nm for 5-HETE quantitation. Using a 15 cm Alltech Nucleosil C-18 5 μM column provides for a sample turnaround time of about 16 minutes.
IC50 is calculated as the amount of test agent that causes 50% inhibition of the formation of 5-HETE relative to the control.

In assay [1] the test system is Isolated Guinea Pig Lung Parenchyma. Description: Smooth Muscle Receptor Agonism-Antagonism Activity Evaluations In Vitro (IVAS), LTC4-induced contraction. The assay is classed as cell-based. As to conditions: Cavia porcellus, LTC4-induced contraction.
Description: Smooth Muscle Receptor Agonism-Antagonism Activity Evaluations In Vitro (IVAS) Isolated Guinea Pig Lung Parenchyma
The potency of a test compound for receptor stimulation or antagonism, for example, can easily be determined since the concentration of the compound to which the muscle cell, or specialized responsive area on this cell, is exposed can be easily controlled and correlated with the recorded activity of muscle contraction or relaxation.
The procedures described herein are specifically concerned with the definition of a test drug action on isolated lung strips. Drug action is characterized either by an action per se on the tissues or by interaction with known smooth muscle receptor stimulants or antagonists.
Usually, the tests will be used to evaluate the ability of a test compound to antagonize the contraction induced by standard agonists in this case LTC4. A relative potency is derived by comparison with one of the standard blocking drugs. In caution, relative potencies of test compounds to known standards are valid only if full dose response curves are generated and the compound compared generate parallel dose/response curves with common maxima. Appropriate "within-trial" comparisons are also necessary.
Molecular antagonists compete with the agonist for the receptor. […] A physiological antagonist produces a response by action on a different receptor that causes an effect in opposition to the agonism.
A permanent isolated bath system is used which facilitates the vertical suspension of a segment of tissue in a small volume of a specific nutritive buffer. Frittered glass terminals provide dispersed bubbles of 95% oxygen and 5% carbon dioxide at the base of the individual tissue baths and the buffer reservoir. All baths and the reservoir are double-jacketed and water at 37° C. is circulated through the jacket of the baths to provide stable temperature regulation. The baths are arranged so that fresh solution from the reservoir passes through a jacketed glass coil to the base of the bath. The bubbling gas stirs the bath solution. During equilibration, fresh solution enters and excess solution is allowed to overflow. Unless a particular drug is required throughout the experiment and it is incorporated in the buffer, individual drugs are introduced directly into the bath by long hypodermic needles to the base of the bath without disturbing the tissue. Drugs are removed by rapidly draining the tissue bath from the bottom and refilling. Tissues are washed a minimum of six times. The emptying and refilling sequence takes only five seconds.
The contraction and relaxation of the smooth muscle preparation can be recorded either isotonically (change in length) or isometrically (change in tension). Isometric transducers are more sensitive and proportional. Isometric contractions are recorded electronically using Grass FT 0.03C force displacement transducers and Beckman Dynagraph recorders. The tissue is suspended vertically with one end of the segment anchored to the bottom of the bath and the other end attached to the mechanical electrical transducer muscle level. The electrical output of this transducer moves a pen on a moving chart in proportion to the force displacement.
Lung tissue is obtained from normal male guinea pigs. The heart and lungs are removed as a unit, placed in buffer, and the lungs are perfused with buffer by the spontaneously beating heart for several minutes.

The term IC50 denotes the concentration at which inhibition is half-maximal. As usually defined, the inhibition is the drop in the measured response relative to a control, in per cent. A lower inhibition goes with little suppression.

On to `O=C(O)c1ccccc1-c1ccccc1C(=O)Nc1ccc(CCCc2ccccc2)cc1` [Example 16, [1,1'-Biphenyl]-2-carboxylic acid, 2'-[[[4-(3-phenylpropyl]phenyl]amino]carbonyl]-], for which, on 5-lipoxygenase, the half-maximal inhibitory concentration (IC50) turned out to be 22 µM. With `O=C(O)c1ccccc1-c1ccccc1C(=O)Nc1ccc(CCCCc2ccccc2)cc1` [Example 19, [1,1'-Biphenyl]-2-carboxylic acid, 2'-[[[4-(4-phenylbutyl)phenyl]amino]carbonyl]-], at 5-lipoxygenase, the IC50 was determined as 7.2 µM. Consider `O=C(O)c1ccccc1-c1ccccc1C(=O)Nc1ccc(CCc2ccc(Cl)c(Cl)c2)cc1` [Example 3, [1,1'-Biphenyl]-2-carboxylic acid, 2'-[[[4-[2-(3,4-dichlorophenyl)ethyl]phenyl]amino]carbonyl]-], for which inhibition in assay [1] was half-maximal at 1 µM (IC50). In assay [1] (@ 3 μM), `O=C(O)c1ccccc1-c1ccccc1C(=O)Nc1ccc(CCCc2ccc(Cl)c(Cl)c2)cc1` [Example 1, [1,1'-Biphenyl]-2-carboxylic acid, 2'-[[[4-[3-(3,4-dichlorophenyl)propyl]phenyl]amino]carbonyl]-] yielded an inhibition at 3 µM of 90%. In addition, on 5-lipoxygenase, the IC50 came out at 6.7 µM.

Consider `O=C(O)c1ccccc1-c1ccccc1C(=O)Nc1ccc(Cc2ccc(Cl)c(Cl)c2)cc1` [Example 9], for which the 50% inhibitory concentration (IC50) on 5-lipoxygenase is 19 µM. The same measure, in the same setting: the result for `COc1ccc(CCc2ccc(NC(=O)c3ccccc3-c3ccccc3C(=O)O)cc2)cc1OC` [Example 7, [1,1'-Biphenyl]-2-carboxylic acid, 2'-[[[4-[2-(3,4-dimethoxyphenyl)ethyl]phenyl]amino]carbonyl]-] reads over 20 µM. Same read-out and setting: the same measure for `O=C(O)c1ccccc1-c1ccccc1C(=O)Nc1ccc(CCCCc2ccc(Cl)c(Cl)c2)cc1` [Example 15, [1,1'-Biphenyl]-2-carboxylic acid, 2'-[[[4-[4-(3,4-dichlorophenyl)butyl]phenyl]amino]carbonyl]-]: 4.6 µM.

Values taken from patent US4786755A, “Diphenic acid monoamides” (Warner-Lambert Company, priority 1986, dated 1988).
